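All cell lines were grown in 96-well plates and treated with compound for 48 hours. GI50: concentration for 50% inhibition of growth. TGI: concentration producing complete growth inhibition.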

Common to all, as to assay: inhibition of tumour cell growth, NCI panel, 48 h
Test [1] relates to MOLT-4 leukemia.
Test [2] deals with MCF7 breast.
For test [3], the system named is UACC-257 melanoma.
Test [4] has as its system OVCAR-5 ovarian.
Test [5] has as its system CAKI-1 renal.
Test [6] deals with MDA-MB-435.
For test [7], the system named is PC-3 prostate.
Test [8] concerns K-562 leukemia.
Test [9] relates to SN12C renal.
Test [10] deals with NCI-H522 lung.

In the case of `COC(=O)N1CC2C3C4CC(C(c5ccccc5)=C4c4ccccc4)C3C21` (centres undefined), the TGI in test [1] came to 38.6 µM; in test [2] it was 78.3 µM; in test [3], 28.9 µM; in test [4], 91.2 µM; in [5], 32.8 µM; in [6] it was 32.8 µM. For the same molecule, the TGI in test [7] was 69.3 µM; in test [8], over 100 µM; in test [9], 33.1 µM.

On to `COC(=O)c1cnc(Cl)cn1`, for which the TGI in [1] is over 100 µM; in test [2], 95.5 µM; in test [3], over 100 µM; in [4], over 100 µM; in test [5], 37.5 µM; in [6], over 100 µM. Also, the TGI in test [7] was over 100 µM; in test [10] it was 5.33 µM; in test [8], over 100 µM; in [9], over 100 µM.

As for `CC(C)C(N)=O`, the TGI in [1], in test [3], in test [4], in [5], in test [10] and in [8] was over 5000 µM each time. In test [9], this molecule registered a TGI of over 5000 µM.

As to `O=C(O)/C(Cc1ccc([N+](=O)[O-])cc1)=N\O`, the TGI in test [2], in test [3], in test [4], in [5], in test [6] and in test [7] was over 100 µM throughout. Also, the TGI in [10], in test [8] and in [9] was over 100 µM in each case.

On to `O=C(Nc1ccc(-n2ccc3c(NC(=O)c4ccccc4)ncnc32)cc1)Nc1cccc(Cl)c1Cl`, for which the GI50 in [1] was 1.71 µM; in test [2] it was 1.12 µM; in test [3], 2.15 µM; in test [4], 1.04 µM; in test [5], 3.84 µM; in [6] it was 1.53 µM. The GI50 in test [7] is 0.582 µM; in test [10], 0.972 µM; in [8] it was 0.985 µM; in test [9] it was 1.08 µM. For the same molecule, the TGI in [1] is over 50 µM; in [2], 5.81 µM; in [3], 7.7 µM; in test [4], 2.84 µM; in [5], 24.9 µM; in test [6], 8.64 µM. Moreover, the TGI in [7] came out at 1.57 µM; in [10], 3.11 µM; in [8] it was 6.04 µM; in test [9], 2.32 µM.

As for `CCOC(=O)CC1(c2cccc3ccccc23)OC(=O)c2ccccc21` (centres undefined), the TGI is 82.4 µM in [1]; over 100 µM in [3]; over 100 µM in test [4]; over 100 µM in test [5]; 79.8 µM in test [10]; over 100 µM in test [8]. The molecule further returned a TGI in test [9] of over 100 µM.

Take `O=C(O)CC1NCc2cc3ccccc3nc21` (centres undefined): the TGI in test [1], in test [2], in test [3], in test [4], in test [5] and in [6] was over 100 µM throughout. The TGI in test [7], in test [10], in test [8] and in test [9] was over 100 µM throughout.

Take `CC(=O)NC1=C[C@@H]([C@H]2COC(C)(C)O2)OC1=O`: the TGI in test [1], in test [2], in [3], in test [4], in [5] and in test [10] was over 100 µM each time. The TGI in test [8] and in [9] was over 100 µM in each case.

As to `O=C1Nc2ccc(Cl)cc2/C1=C\c1c(Cl)nc2sccn12`, the TGI in test [1] was 51.9 µM; in test [3], over 100 µM; in test [4], 78.2 µM; in test [5], over 100 µM; in test [6], 3.22 µM; in test [7] it was over 100 µM. Moreover, the TGI in [10], in [8] and in test [9] was over 100 µM each time.

Consider `C=C(OC1C(C)=C2C(C1OC(=O)CCCCCCC)C(C)(OC(C)=O)CC(OC(=O)CCC)C1(O)C2OC(=O)C1(C)O)/C(C)=C/C` (centres undefined), for which the GI50 in test [1] is 0.000402 µM; in test [3] it was 0.000269 µM; in test [4] it was under 0.0001 µM; in test [5], 0.000475 µM; in [8], under 0.0001 µM; in test [9], 0.0105 µM. Besides, the TGI is 0.177 µM in test [1]; 0.191 µM in [2]; 11.9 µM in test [3]; 8.64 µM in test [4]; 0.0615 µM in [5]; 1.11 µM in test [10]. Moreover, the TGI in test [8] stood at 5.38 µM; in test [9], 1.91 µM.

As for `c1csc(C[N+]23CN4CN(CN(C4)C2)C3)c1`, the TGI was 44.6 µM in test [1]; over 100 µM in test [3]; 67.3 µM in test [4]; 59.5 µM in [5]; over 100 µM in [10]; 48.8 µM in test [8].

These data come from PubChem BioAssay (NCI).
